# Results published in patent US8383582B2, “Inhibitor against forming biofilm comprising κ-casein macropeptide” (Industry Foundation of Chonnam National University, priority 2010, dated 2013).
# Experiments:
# Format in all cases: cell-based, Listeria monocytogenes
# [1] = test system: L. monocytogenes Scott A biofilm cells; assay: Two-dimensional gel electrophoresis / LC-MS/MS of biofilm cell protein extracts
# Method: This biofilm formation protocol was adapted from that used for the microtiter plate assay in this invention, to obtain a sufficient quantity of biofilm cells for two-dimensional gel electrophoresis (2-DE). Biofilms were prepared by using a slight modification of a previously described method (Ren et al., 2004). L. monocytogenes was grown in TSBYE overnight, and a 2.5 ml overnight culture was washed twice with PBS. Then, the cells were inoculated into a 250-ml shake flask containing 100 ml fresh MWB with or without the effective concentration of CMP on 10 g sterilized glass wool (Pyrex fiber glass; Corning, N.Y., USA). The cells were incubated with shaking (250 rpm in a shaking incubator; Vision Scientific Co., Ltd., Korea) at 30° C. to form a biofilm on the glass wool. After 24 h inoculation, the glass wool was retrieved from the culture, and quickly and gently washed twice in 100 ml of 0.85% sodium chloride buffer (within 30 s) at 4° C. The biofilm cells were removed from the glass wool by sonication in 200 ml of 0.85% sodium chloride buffer at 4° C. for 2 min. The buffer was then centrifuged (8,000×g in a VS-21S MT centrifuge; Vision Scientific Co., Ltd.) for 10 min at 4° C. to precipitate the biofilm cells. These cells were washed twice by centrifugation (8,000×g, 10 min, 4° C.) with 0.85% sodium chloride buffer; the cell pellets were flash-frozen in liquid nitrogen. While sonicating, suspended biofilm cells with an optical density at 600 nm of 2 were harvested by centrifugation (8,000×g) at room temperature for 10 min in an Eppendorf tube. The cell pellets were then flash-frozen in liquid nitrogen and kept at −80° C. until protein extraction.
# The biofilm cells harvested from the glass wool were suspended in the same lysis buffer (TE buffer; 40 mM Tris, 1 mM EDTA, pH 8.0) and lysed by using Ultraschallprozessor UP200S (amplification 70, 0.5 cycle; Dr. Hielscher GmbH) 20 times for 30 s on ice. Following sonication, the unlysed cells, cell debris, and glass fibers were removed by centrifugation (8,000×g, 4° C.), and the supernatant fluids were recovered.
# Protein samples were precipitated by using the phenol protocol of Hanna et al. (2000). The protein concentration was determined by using the modified Bradford assay method (Ramagli, 1999). The protein samples were stored at −80° C. until proteomic analysis.
# The method described by Kim et al. (2006) with slight modifications was used for 2-DE. In the first dimension of isoelectric focusing (IEF), precast immobilized pH gradient (IPG) strips, with a nonlinear gradient from pH 3 to 10 (Bio-Rad Laboratories, Richmond, Calif., USA), were rehydrated for 12-18 h with 500 μg of protein in 300 μl of rehydration buffer (8 M urea, 2% CHAPS, 50 mM DTT, 10% isopropanol, 5% glycerol, 0.002% bromophenol blue, 0.2% ampholytes, water). In accordance with the manufacturer's instructions, focusing was performed by using a Protean IEF cell system (Bio-Rad Laboratories) at 20° C. under 60,000 Vh. After IEF, the strips were incubated for 10 min in equilibration buffer I (6 M urea, 2% SDS, 20% glycerol, 130 mM DTT, 0.375 M Tris-HCl [pH 8.8]), followed by another 10 min in equilibration buffer II (6 M urea, 2% SDS, 20% glycerol, 135 mM iodoacetamide, 0.375 M Tris-HCl [pH 8.8]). After equilibration, the strips were transferred to 12.5% sodium dodecyl sulfate (SDS)-polyacrylamide gels (20×22 cm) for running in the second dimension.
# The proteins were separated by using a Protean II xi system (Bio-Rad Laboratories) with 20 mA per gel at 4° C. The protein spots were visualized by blue-silver staining (Candiano et al., 2004). The stained gels were then scanned with a densitometric scanner (UTA 2100XL; UMAX, Dallas, Tex., USA), and the spots were analyzed by using the PDQuest software (Bio-Rad Laboratories) in accordance with the manufacturer's instructions. Four gels resulting from two independent experiments were obtained, and two gels of good quality were used for analysis. […]
# L. monocytogenes = assay: Biofilm formation on PVC microplates under static condition (crystal violet, A595); details: for inhibitory rate of biofilm formation (group): 24 h incubation
# Description: (§1) The quantification of biofilm production on plastic microtiter plates and glass tubes was based on a previously described method (Djordjevic et al., 2002). As abiotic surfaces for biofilm formation, 96-well polyvinyl chloride (PVC) microplates (BD Biosciences, San Jose, Calif., USA) and Pyrex glass tube (10 mm by 20 mm) were used. Overnight cultures of 12 strains of L. monocytogenes were twice washed with PBS and inoculated at 10^6 CFU/ml in modified Welshimer's broth (MWB) supplemented different concentrations of CMP (Davisco Foods International, Inc., MN, USA; 0.1, 0.2, and 0.4 mg/ml or 1.0, 2.0, and 4.0 mg/ml). After incubation at 30° C. without agitation for 24 and 48 h, the microplates were twice rinsed thoroughly with double-distilled water, and a 0.1% (w/v) solution of crystal violet (CV) was added to stain the attached cells. Following staining at room temperature for 30 min, CV was removed and the wells were rinsed with double-distilled water thrice. After the microplates were air dried, the dye was solubilized with 95% ethanol solution. The absorbance at 595 nm of the solubilized dye was subsequently determined by using an enzyme-linked immunosorbent assay (ELISA) plate reader (Molecular Devices, Sunnyvale, Calif., USA). An equal volume of 95% ethanol was added in the control wells.
# All experiments were conducted at least in triplicate. The effects of each treatment were analyzed by analysis of variance (ANOVA) followed by Duncan's test with the SAS software package (version 9.1; SAS, Inc., Cary, N.C., USA). The level of significance was defined at p<0.05.
# L. monocytogenes Scott A = assay: Light microscopy of biofilm on PVC microtiter plates and glass tube; details: MWB 24 h, CMP 0.4 mg/ml
# Description: as §1, with “Following staining at room temperature for 30 min, CV was removed and the wells were rinsed with double-distilled water thrice. After the microplates were air dried, the dye was solubilized with 95% ethanol solution.” left out, “An equal volume of 95% ethanol was added in the control wells.” left out
# In addition, biofilm formations on PVC microtiter plates and glass tube by L. monocytogenes incubated in MWB for 24 h in the presence or absence of CMP (0.4 mg/ml) were analyzed using light microscopy and microscopic analyses were illustrated in FIGS. 3 and 4, respectively.
# [2] = presence of 0.4 mg/ml CMP vs absence
substance,measurement,setting,value
κ-casein macropeptide [CMP],protein spots with increase or decrease in amounts compared to the control,"[1]; 0.4 mg/ml CMP, about 320 spots visualized",two and seven spots were up- and down-regulated
same,"FC, Fold difference in biofilm: spot 0302 enolase",[1]; [2],−3.8 Fold
same,"FC, Fold difference in biofilm: spot 2004 glutamine synthetase",[1]; [2],+2.4 Fold
same,"FC, Fold difference in biofilm: spot 4405 6-phosphofructokinase",[1]; [2],−2.8 Fold
same,"FC, Fold difference in biofilm: spot 5104 hypothetical protein Smal_0271",[1]; [2],∇
same,"FC, Fold difference in biofilm: spot 5105 conserved hypothetical protein",[1]; [2],−2.0 Fold
same,"FC, Fold difference in biofilm: spot 5206 Gap",[1]; [2],+2.9 Fold
same,"FC, Fold difference in biofilm: spot 5207 hypothetical protein Smal_0271",[1]; [2],−2.4 Fold
same,"FC, Fold difference in biofilm: spot 6103 glutamine synthetase",[1]; [2],−2.0 Fold
same,"FC, Fold difference in biofilm: spot 7202 phosphoglycerate mutase 1 family",[1]; [2],−3.2 Fold
same,inhibitory effects on biofilm formation at low concentrations,"L. monocytogenes; 0.1, 0.2, or 0.4 mg/ml tested, effect at 0.4 mg/ml",profound inhibitory effects
same,differences in biofilm inhibition among the tested concentrations,"L. monocytogenes; 1, 2, or 4 mg/ml of CMP",no significant differences
same,decrease of L. monocytogenes biofilms compared to the control,"L. monocytogenes; PVC microplates, 1, 2, or 4 mg/ml of CMP",< 90%
same,inhibitory rate of biofilm formation (group),"L. monocytogenes; strain 17, PVC microplates",high inhibition (90%≦inhibition rate represent high inhibition)
same,inhibitory rate of biofilm formation (group),"L. monocytogenes; strain 18, PVC microplates",high inhibition (90%≦inhibition rate represent high inhibition)
same,inhibitory rate of biofilm formation (group),"L. monocytogenes; strain 70, PVC microplates",low inhibition (inhibition rate<87% represent low inhibition)
same,inhibitory rate of biofilm formation (group),"L. monocytogenes; strain 106, PVC microplates",medium inhibition (87%≦inhibition rate<90% represent medium inhibition)
same,inhibitory rate of biofilm formation (group),"L. monocytogenes; strain 303, PVC microplates",low inhibition (inhibition rate<87% represent low inhibition)
same,inhibitory rate of biofilm formation (group),"L. monocytogenes; strain 3982, PVC microplates",high inhibition (90%≦inhibition rate represent high inhibition)
same,inhibitory rate of biofilm formation (group),"L. monocytogenes; strain 3990, PVC microplates",high inhibition (90%≦inhibition rate represent high inhibition)
same,inhibitory rate of biofilm formation (group),"L. monocytogenes; strain Brie-1, PVC microplates",high inhibition (90%≦inhibition rate represent high inhibition)
same,inhibitory rate of biofilm formation (group),"L. monocytogenes; strain LCDC, PVC microplates",low inhibition (inhibition rate<87% represent low inhibition)
same,inhibitory rate of biofilm formation (group),"L. monocytogenes; strain Scott A, PVC microplates",low inhibition (inhibition rate<87% represent low inhibition)
same,inhibitory rate of biofilm formation (group),"L. monocytogenes; strain V7, PVC microplates",medium inhibition (87%≦inhibition rate<90% represent medium inhibition)
same,inhibitory rate of biofilm formation (group),"L. monocytogenes; strain V37, PVC microplates",medium inhibition (87%≦inhibition rate<90% represent medium inhibition)
same,attached cells (light microscopy),L. monocytogenes Scott A,only a small number of L. monocytogenes Scott A cells had attached
